Common to all, as to format: cell-based
The subject of experiment [1] is Escherichia coli. Put plainly: agar plate disc-diffusion, antibacterial activity. Conditions: nutrient agar, 37° C., 48 hours, DMSO zone subtracted; for inhibition zone Escherichia coli A: A = concentration of comp. = 10,000 μL; for inhibition zone Escherichia coli B: B = concentration of comp. = 30,000 μL; for inhibition zone Escherichia coli C: C = concentration of comp. = 50,000 μL. As to the method:
(§1) The agar plate disc-diffusion method was applied. Sterilized filter papers (6 mm in diameter) were wetted with 10 μL of a solution of 4-(2,4,5-tris(4-chlorophenyl)-1H-imidazol-1-yl)butanoic acid (V) to be tested, containing 10 mg/mL in DMSO, and the discs were allowed to air dry. The discs were then placed onto the surface of agar plates (nutrient agar for bacteria and Sabouraud's dextrose agar for fungi) seeded with the test organism. Each plate contained 15 mL of the agar medium, previously seeded with 0.2 mL of the broth culture of each organism pregrown for 18 hours. The plates were incubated at 37° C. for 48 hours, and 72 hours for fungi. The inhibition zones were measured in millimeters (mm). Discs impregnated with DMSO were used as a control, and its inhibition zone was subtracted from the tested compound actual inhibition zone.
Background: In agar diffusion tests the substance spreads into inoculated agar from a disc or well.

Experiment [2] concerns Pseudomonas aeruginosa. Put plainly: agar plate disc-diffusion, antibacterial activity. Conditions: nutrient agar, 37° C., 48 hours, DMSO zone subtracted; for inhibition zone Pseudomonas aeruginosa A: A = concentration of comp. = 10 mg/mL; for inhibition zone Pseudomonas aeruginosa B: B = concentration of comp. = 30,000 μL; for inhibition zone Pseudomonas aeruginosa C: C = concentration of comp. = 50,000 μL. As to the method:
as §1

Experiment [3] concerns Aspergillus flavus. Put plainly: agar plate disc-diffusion, antifungal activity. Conditions: Sabouraud's dextrose agar, 72 hours, DMSO zone subtracted; for inhibition zone Aspergillus flavus A: A = concentration of comp. = 10,000 μL; for inhibition zone Aspergillus flavus B: B = concentration of comp. = 30,000 μL; for inhibition zone Aspergillus flavus C: C = concentration of comp. = 50,000 μL. As to the method:
as §1, with “Sterilized filter papers (6 mm in diameter) were wetted with 10 μL of a solution of 4-(2,4,5-tris(4-chlorophenyl)-1H-imidazol-1-yl)butanoic acid (V) to be tested, containing 10 mg/mL in DMSO, and the discs were allowed to air dry.” left out

Experiment [4] relates to Chrysosporium keratinophilum. The experiment in a line: agar plate disc-diffusion, antifungal activity. Conditions: Sabouraud's dextrose agar, 72 hours, DMSO zone subtracted; for inhibition zone Chrysosporium keratinophilum A: A = concentration of comp. = 10,000 μL; for inhibition zone Chrysosporium keratinophilum B: B = concentration of comp. = 30,000 μL; for inhibition zone Chrysosporium keratinophilum C: C = concentration of comp. = 50,000 μL. The method, then: as §1, with “Sterilized filter papers (6 mm in diameter) were wetted with 10 μL of a solution of 4-(2,4,5-tris(4-chlorophenyl)-1H-imidazol-1-yl)butanoic acid (V) to be tested, containing 10 mg/mL in DMSO, and the discs were allowed to air dry.” left out

The subject of experiment [5] is Staphylococcus aureus. Put plainly: agar plate disc-diffusion, antibacterial activity. Conditions: nutrient agar, 37° C., 48 hours, DMSO zone subtracted; for inhibition zone Staphylococcus aureus A: A = concentration of comp. = 10,000 μL; for inhibition zone Staphylococcus aureus B: B = concentration of comp. = 30,000 μL; for inhibition zone Staphylococcus aureus C: C = concentration of comp. = 50,000 μL. As to the method:
as §1, with “Sterilized filter papers (6 mm in diameter) were wetted with 10 μL of a solution of 4-(2,4,5-tris(4-chlorophenyl)-1H-imidazol-1-yl)butanoic acid (V) to be tested, containing 10 mg/mL in DMSO, and the discs were allowed to air dry.” left out

Experiment [6] deals with Bacillus cereus. Put plainly: agar plate disc-diffusion, antibacterial activity. The following applies: nutrient agar, 37° C., 48 hours, DMSO zone subtracted; for inhibition zone Bacillus Cereus B: B = concentration of comp. = 30,000 μL; for inhibition zone Bacillus Cereus C: C = concentration of comp. = 50,000 μL. As to the method: as §1, with “Sterilized filter papers (6 mm in diameter) were wetted with 10 μL of a solution of 4-(2,4,5-tris(4-chlorophenyl)-1H-imidazol-1-yl)butanoic acid (V) to be tested, containing 10 mg/mL in DMSO, and the discs were allowed to air dry.” left out

Regarding `O=C(O)c1cn(C2CC2)c2cc(N3CCNCC3)c(F)cc2c1=O` [Cip., ciprofloxacin], in experiment [1], the “inhibition zone Escherichia coli A” value is given as 30 mm, the “inhibition zone Escherichia coli B” value amounted to 39 mm and the “inhibition zone Escherichia coli C” value stood at 60 mm. Moreover, in experiment [2], the “inhibition zone Pseudomonas aeruginosa A” value was found to be 29 mm, the “inhibition zone Pseudomonas aeruginosa B” value is 30 mm and the “inhibition zone Pseudomonas aeruginosa C” value is 53 mm. For the same molecule, in experiment [3], the “inhibition zone Aspergillus flavus A” value worked out at 29 mm, the “inhibition zone Aspergillus flavus B” value stood at 30 mm and the “inhibition zone Aspergillus flavus C” value is 42 mm. Further, in experiment [4], the “inhibition zone Chrysosporium keratinophilum A” value amounted to 29 mm, the “inhibition zone Chrysosporium keratinophilum B” value is recorded as 30 mm and the “inhibition zone Chrysosporium keratinophilum C” value came out at 53 mm. In addition, in experiment [5], the “inhibition zone Staphylococcus aureus A” value worked out at 42 mm, the “inhibition zone Staphylococcus aureus B” value is recorded as 44 mm and the “inhibition zone Staphylococcus aureus C” value came to 53 mm. Moreover, in experiment [6], the “inhibition zone Bacillus Cereus A” value was found to be 29 mm, the “inhibition zone Bacillus Cereus B” value is 31 mm and the “inhibition zone Bacillus Cereus C” value was found to be 42 mm.
Regarding `O=C(O)CCCn1c(-c2ccc(Cl)cc2)nc(-c2ccc(Cl)cc2)c1-c1ccc(Cl)cc1` [V, 4-(2,4,5-tris(4-chlorophenyl)-1H-imidazol-1-yl)butanoic acid], in experiment [1], the “inhibition zone Escherichia coli A” value is reported as 24 mm, the “inhibition zone Escherichia coli B” value turned out to be 35 mm and the “inhibition zone Escherichia coli C” value is given as 51 mm. For the same molecule, in experiment [2], the “inhibition zone Pseudomonas aeruginosa A” value is 26 mm, the “inhibition zone Pseudomonas aeruginosa B” value was 31 mm and the “inhibition zone Pseudomonas aeruginosa C” value amounted to 46 mm. Further, in experiment [3], the “inhibition zone Aspergillus flavus A” value stood at 16 mm, the “inhibition zone Aspergillus flavus B” value worked out at 22 mm and the “inhibition zone Aspergillus flavus C” value is given as 36 mm. In experiment [4], the “inhibition zone Chrysosporium keratinophilum A” value turned out to be 25 mm, the “inhibition zone Chrysosporium keratinophilum B” value is 28 mm and the “inhibition zone Chrysosporium keratinophilum C” value is given as 49 mm. Further, in experiment [5], the “inhibition zone Staphylococcus aureus A” value was found to be 14 mm, the “inhibition zone Staphylococcus aureus B” value was determined as 19 mm and the “inhibition zone Staphylococcus aureus C” value worked out at 26 mm. For the same molecule, in experiment [6], the “inhibition zone Bacillus Cereus A” value amounted to 19 mm, the “inhibition zone Bacillus Cereus B” value was determined as 25 mm and the “inhibition zone Bacillus Cereus C” value came out at 40 mm.

For the origin of these results see patent publication US11912665B1, “4-(2,4,5-tris(4-chlorophenyl)-1H-imidazol-1-yl)butanoic acid as an antimicrobial compound” (KING FAISAL UNIVERSITY, priority 2023, dated 2024).
